By IC50 is commonly meant the concentration that inhibits the measured activity by half. Usually Kd stands for the concentration at which binding is half-saturated. High values mean lower affinity, low ones higher affinity.

The target in experiment [1] is T1, ezrin T567 phosphorylation by PKC,τ (Mus musculus, UniProt P26040).
T1 construct: Recombinant full length ezrin was prepared to a concentration of 100 μg/ml; host or cells: E. coli M15pREP4 (ezrin)
Nature of the experiment: In vitro kinase assay: recombinant ezrin T567 phosphorylation by PKC,τ. The experiment is classed as biochemical. Conditions: phosphospecific antibody immunoblot densitometry. The procedure: FIG. 2 illustrates NSC305787 and NSC668394 inhibit ezrin T567 phosphorylation. (A) K7M2 metastatic OS cell line was treated with NSC305787 (10 μM) and NSC668394 (10 μM) for 6 hours. […] The effect of NSC305787 and NSC668394 on recombinant ezrin phosphorylation by recombinant PKC, was tested in an in vitro kinase assay. Phoshorylation of ezrin was detected by a phosphospecific antibody following PAGE and immunoblotting. Experiments were repeated three times and densitometric analysis of bands was used for calculation of % inhibition (graphs). Error bars represents s.d. from three independent experiments. Kinase activities of PKC,τ, PKC,α and PKC,γ were also evaluated with a nonspecific substrate in the presence of NSC305787 and NSC668394 by a radioactive in vitro kinase assay. Data analysis was done by using a sigmoidal dose-response equation where log EC50 for each curve with the ezrin substrate and the non-specific substrate were compared to each other (P=0.0118 for NSC305787 and P=0.0084 for NSC668394).
500 ng of recombinant ezrin protein in kinase assay mix (200 μM ATP) was incubated with the compounds at 1-100 μM concentrations for 15 minutes on ice, then 50 ng PKC,τ (Millipore, Billerica, Mass.) was added. Reaction was performed at 30° C. for 30 min and stopped by adding 2× sample buffer. […]

The target of the next experiment is T2, PKC,τ (Homo sapiens, UniProt P41743).
T2 sequence (P41743 1-596): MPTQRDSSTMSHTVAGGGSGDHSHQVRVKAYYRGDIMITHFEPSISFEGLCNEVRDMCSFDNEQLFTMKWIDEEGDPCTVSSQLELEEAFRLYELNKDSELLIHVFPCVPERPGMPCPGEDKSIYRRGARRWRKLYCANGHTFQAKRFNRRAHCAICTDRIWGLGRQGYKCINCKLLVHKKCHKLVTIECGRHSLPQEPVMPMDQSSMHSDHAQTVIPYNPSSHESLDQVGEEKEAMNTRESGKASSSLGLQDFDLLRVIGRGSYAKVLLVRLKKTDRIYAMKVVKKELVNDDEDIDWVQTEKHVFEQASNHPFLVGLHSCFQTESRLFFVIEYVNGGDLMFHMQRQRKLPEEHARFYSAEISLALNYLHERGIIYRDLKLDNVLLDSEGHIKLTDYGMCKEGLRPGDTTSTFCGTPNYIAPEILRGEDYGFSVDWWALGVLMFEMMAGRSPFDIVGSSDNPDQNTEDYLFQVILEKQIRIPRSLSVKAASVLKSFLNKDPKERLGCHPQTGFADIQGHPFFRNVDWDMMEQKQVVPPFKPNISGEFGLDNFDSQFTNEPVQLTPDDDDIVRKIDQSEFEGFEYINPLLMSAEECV
Nature of the experiment: SPR direct binding to PKC,τ (Biacore). Conditions: data not shown.

T1 sequence (P26040 whole entry): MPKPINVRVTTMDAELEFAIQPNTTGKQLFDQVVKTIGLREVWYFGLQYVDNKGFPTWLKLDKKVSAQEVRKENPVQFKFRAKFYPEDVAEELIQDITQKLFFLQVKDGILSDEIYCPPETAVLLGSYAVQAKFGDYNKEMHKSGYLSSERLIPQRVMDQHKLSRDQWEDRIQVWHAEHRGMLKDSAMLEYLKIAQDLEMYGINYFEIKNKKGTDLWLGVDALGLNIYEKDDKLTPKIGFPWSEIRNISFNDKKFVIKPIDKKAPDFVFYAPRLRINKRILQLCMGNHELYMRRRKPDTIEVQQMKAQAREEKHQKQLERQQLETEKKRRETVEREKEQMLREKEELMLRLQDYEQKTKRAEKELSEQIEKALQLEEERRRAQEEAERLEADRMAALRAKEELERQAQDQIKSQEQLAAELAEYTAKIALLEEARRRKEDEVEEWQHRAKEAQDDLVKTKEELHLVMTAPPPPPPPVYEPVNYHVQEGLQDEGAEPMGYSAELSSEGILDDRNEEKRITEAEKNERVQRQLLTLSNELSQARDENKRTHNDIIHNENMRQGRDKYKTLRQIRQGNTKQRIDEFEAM

With `OC(c1cc(C23CC4CC(CC(C4)C2)C3)nc2c(Cl)cc(Cl)cc12)C1CCCCN1` (centres unmarked) [NSC305787], the IC50 in experiment [1] worked out at 5.5 µM. The molecule further came in with a Kd on PKC,τ of 172 µM.

The values are drawn from patent publication US9522908B2, “Ezrin inhibitors and methods of making and using” (Georgetown University, priority 2010, dated 2016).
